Source: US20200277268A1, “PENTAFLUOROPHENYL SULFONAMIDE COMPOUNDS, COMPOSITIONS AND USES THEREOF” (DALRIADA THERAPEUTICS INC., priority 2017, published 2020)
Entries after “also recorded” stand apart in the source; their conditions may differ.

What was measured:
Type in all cases: binding
UBA5 [1] = molecular target: T1, UBA5 (Homo sapiens, UniProt Q9GZZ9); test: MS study of UBA5 covalent adduct; conditions: 100 μM I-1, 50 μM UBA5
T1 construct: Constructs of full length human UBA5 (1-404) were cloned into a pET28b(+) vector; His-SUMO (N, cleaved yes); made in house; host or cells: E. coli BL21 (DE3) RILP
Method: To further characterize covalent modification of UBA5 by I-1, samples were incubated as 100 μM I-1 and 50 μM UBA5 (50 mM HEPES, pH 7.4) at 30° C. for 2 hours, followed by storage overnight at 4° C. prior to submission for LC-MS analysis.

bromodomains = test: BROMOscan bromodomain screen (DiscoverX); conditions: 10 μM
Method: T7 phage strains displaying bromodomains were grown in parallel in 24-well blocks in an E. coli host derived from the BL21 strain. E. coli were grown to log-phase and infected with T7 phage from a frozen stock (multiplicity of infection=0.4) and incubated with shaking at 32° C. until lysis (90-150 minutes). The lysates were centrifuged (5,000×g) and filtered (0.2 μm) to remove cell debris. […] The liganded beads were blocked with excess biotin and washed with blocking buffer (SeaBlock (Pierce), 1% BSA, 0.05 Tween 20, 1 mM DTT) to remove unbound ligand and to reduce non-specific phage binding. […] Test compounds were prepared as 1000× stocks in 100% DMSO and subsequently diluted 1:25 in monoethylene glycol (MEG). The compounds were then diluted directly into the assays such that the final concentrations of DMSO and MEG were 0.1% and 2.4%, respectively. All reactions were performed in polypropylene 384-well plates in a final volume of 0.02 ml. […] The bromodomain concentration in the eluates was measured by qPCR.
I-1 test compound was tested at 10 μM, and results for primary screen binding interactions are reported as ‘% Ctrl,’ where lower numbers indicate stronger hits in the matrix. % Ctrl is calculated with the following formula:
(§1) test compound=I-1 negative control=DMSO (100% Ctrl) positive control=control compound (0% Ctrl)

UBA5 [2] = molecular target: T1, UBA5; test: Thermal shift assay of UBA5; conditions: 50 μM I-1, 0.5 μM UBA5; without compound 46.43° C.
Method: SYPRO Orange protein gel stain (Sigma-Aldrich) was used to conduct thermal shift assays. This was done on a Bio-Rad C1000 Touch ThermoCycler with a CFX96 Real-Time optical unit. Final UBA5 protein concentrations of 0.5 μM were used in 50 mM HEPES, pH 7.4. UBA5 was pre-incubated with test compound I-1 for 4 hours at 30° C. Next, SYPRO orange was added to the samples for a final 5× (10 μM) concentration from the original 5000× stock. DMSO content was 5% (v/v). Heating was done in 0.5° C. increases with 30 seconds in between, from 10 to 75° C. Fluorescence intensity was measured at […] followed by excitation at […]. This emission intensity was graphed against temperature and then recorded as a first derivative curve. The temperature of the resultant curve minima provided the melting temperature (Tm) of the protein. Experiments were run in triplicates.

kinases = test: KINOMEscan kinase screen (DiscoverX); conditions: 10 μM
Method: For most assays, kinase-tagged T7 phage strains were grown in parallel in 24-well blocks in an E. coli host derived from the BL21 strain. E. coli were grown to log-phase and infected with T7 phage from a frozen stock (multiplicity of infection=0.4) and incubated with shaking at 32° C. until lysis (90-150 minutes). The lysates were centrifuged (6,000×g) and filtered (0.2 μm) to remove cell debris. The remaining kinases were produced in HEK-293 cells and subsequently tagged with DNA for qPCR detection. […] The liganded beads were blocked with excess biotin and washed with blocking buffer (SeaBlock (Pierce), 1% BSA, 0.05% Tween 20, 1 mM DTT) to remove unbound ligand and to reduce non-specific phage binding. […] I-1 test compound was prepared as 40× stocks in 100% DMSO and directly diluted into the assay. All reactions were performed in polypropylene 384-well plates in a final volume of 0.02 mL. […] The kinase concentration in the eluates was measured by qPCR. […]
I-1 test compound was tested at 10 μM, and results for primary screen binding interactions are reported as […] where lower numbers indicate stronger hits in the matrix. Ctrl is calculated with the following formula:
as §1

T1 sequence (Q9GZZ9 whole entry): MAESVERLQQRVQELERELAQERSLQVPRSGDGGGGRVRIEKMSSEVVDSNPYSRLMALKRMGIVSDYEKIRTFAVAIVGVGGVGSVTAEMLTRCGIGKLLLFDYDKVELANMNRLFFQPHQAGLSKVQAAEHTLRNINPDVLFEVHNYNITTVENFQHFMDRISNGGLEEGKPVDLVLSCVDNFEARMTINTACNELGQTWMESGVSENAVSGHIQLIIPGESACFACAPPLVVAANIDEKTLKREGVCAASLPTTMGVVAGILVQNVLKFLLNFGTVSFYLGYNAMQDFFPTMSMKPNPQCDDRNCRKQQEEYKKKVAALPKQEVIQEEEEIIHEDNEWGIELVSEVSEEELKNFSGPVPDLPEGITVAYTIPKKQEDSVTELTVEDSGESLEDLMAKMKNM

- UBA5 covalent adduct formation by MS (UBA5 [1]): covalent adduct formation
- melting temperature (Tm) of UBA5 with compound (UBA5 [2]): 44.33 °C
Structure (SMILES): O=S(=O)(c1c(F)c(F)c(F)c(F)c1F)N(Cc1ccc(F)cc1)C1CC1 [Compound I-1, N-cyclopropyl-2,3,4,5,6-pentafluoro-N-(4-fluorobenzyl)benzenesulfonamide]
- competitive binding / inhibition of 32 bromodomain targets (bromodomains): negligible competitive binding; also recorded: does not inhibit
- competitive binding / inhibition of kinase targets (kinases): negligible competitive binding; also recorded: does not inhibit
